From patent US8097585B2, “Methods of treating inflammation by administration of heme oxygenase-1 and products of heme degradation” (priority 2002, dated 2012)
Where a name gives a salt, the structure may show the parent alone.

Legend:
[1] = test system: HO-1; experiment: HO-1 expression in colonic tissue during DSS-colitis (Western blot, semi-quantitative PCR); type: in vivo, C57BL/6 mice; details: CoPP 5 mg/kg i.p. daily, entire 7 day period
Experimental: Western Blot Analysis. Tissue samples from the distal colon of the animals were removed and snap frozen with liquid nitrogen. The frozen tissue was ground thoroughly and homogenized in Ripa buffer supplemented with proteinase inhibitors. The protein concentration was determined by the Bio-Rad Dc Protein Assay™ according manufacturers instructions (Bio-Rad, Hercules, Calif.). Electrophoresis was performed under denaturing conditions according to Laemmli with 10% polyacrylamide gels by loading 35 μg protein. Proteins were transferred onto a polyvinyldifluoridine membrane (Immobilon P™; Millipore, Bedford, Mass.) by electroblotting. Proteins were then detected with rabbit polyclonal antibodies directed against human HO-1 (StressGen, Victoria, Canada) or β-tubulin (Boehringer Mannheim, Mannheim, Germany). Proteins were visualized using HRP-conjugated donkey anti-rabbit IgG or goat anti-mouse IgG (Pierce) and the ECL assay (Amersham Life Science, Arlington Heights, Ill.), according to manufacturer's instructions.
Semi-Quantitative PCR. RNA was extracted using RNeasy Mini Kits (Qiagen Inc., CA, USA) and reverse transcribed into cDNA with the RNA PCR Kit (TaKaRa, PanVera, Madison, Wis., USA). […] PCR products (10-20 μl) were analyzed in an ethidium bromide-stained 1% agarose gel.

[2] = design: species or system LEW rats; details: rat, in vivo, ip
Experimental: Serum bilirubin levels and BVR expression in the graft. To assess how fast injected biliverdin (BV) is metabolized into bilirubin, sequential serum bilirubin levels were analyzed. Before BV treatment, serum bilirubin levels were undetectable. Thirty minutes after BV injection i.p., serum bilirubin levels reached a peak of 1.07±0.5 mg/dl compared to those of normal animals. By 2 hours after injection i.p., bilirubin levels returned to normal.

[3] = test system: IL-10; experiment: Real time RT-PCR of graft muscularis after SITx, IL-10; type: in vivo, LEW rats; details: BV treatment, 4 hours
Experimental: Small Intestinal Transplantation. Orthotopic small intestinal transplantation (SITx) was performed in syngeneic Lewis rats. SITx with caval drainage was performed using a previously described procedure (Murase et al., in Handbook of Animal Models in Transplantation Research, Cramer et al., Eds. CRC Press, Boca Raton, Fla., pp. 203-213 (1994)). […] The graft was perfused via the aortic segment with 5 ml chilled Ringer's lactate solution, and the intestinal lumen was irrigated with 20 ml of cold saline solution containing 0.5% neomycin-sulfate (Sigma, St. Louis, Mo.). […]
SYBR green real time RT-PCR. The effects of administration of biliverdin on transplant-induced pro-inflammatory and anti-inflammatory gene expression were assessed in muscularis extracts by RT-PCR Biliverdin ([…], i.p.) was administered to both the donor and recipient three hours preoperatively. […] Equal aliquots (5 μg) of total RNA from each sample were quantified by spectrophotometry (wavelength […]) and aliquoted at a concentration of 40 ng/μl. Peak mRNA expression was quantified in duplicate by SYBR Green two-step, real-time RT-PCR. […] Real-time PCR data were plotted as the ΔRn fluorescence signal versus the cycle number. […] Quantification of mRNA expression was normalized to GAPDH and calculated relative to control using the comparative CT method (Schmittgen et al., J. Biochem. Biophys. Methods 46(1-2):69-8, 2000). […]

Structure (SMILES)	HO-1 protein in the intestine [1]	peak serum bilirubin level ([2]; LEW) [mg/dL]	time for bilirubin levels to return to normal ([2]; LEW) [h]	time to peak serum bilirubin [2]	upregulation of IL-10 mRNA caused by transplantation [3]
C=CC1=C(C)c2cc3[n-]c(cc4nc(cc5[n-]c(cc1n2)c(C)c5CCC(=O)[O-])C(CCC(=O)[O-])=C4C)c(C)c3C=C.[Co+2].[H+].[H+] [CoPP, Cobalt protoporphyrin]	consistently high levels of HO-1 protein	–	–	–	–
C=CC1=C(C)/C(=C/C2=NC(=C\c3[nH]c(/C=C4\NC(=O)C(C)=C4C=C)c(C)c3CCC(=O)O)/C(CCC(=O)O)=C2C)NC1=O [biliverdin, biliverdin dihydrochloride]	–	1.07 ± 0.5	≤ 2	Thirty	did not significantly change
